The results in this text go back to patent publication US8450479B2, “3-substituted-4-oxo-3,4-dihydro-imidazo[5,1-d][1,2,3,5-tetrazine-8-carboxylic acid amides and their use” (Pharminox Limited, priority 2007, dated 2013).

What all share (assay type): cell-based
One experiment relates to Glioma U373M (MGMT+). The experiment is described as follows: MTT assay for 7-day toxicity assay. The essentials:
(§1)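 MGMT-transfected or vector-control glioma cells were seeded at 650 cells/well, attached overnight, and exposed for 7 days at 37 °C to compound at final 0.5–1000 μM. Viability was read by MTT (0.4 mg/mL, 4 h) formazan absorbance, with a day-0 plate included.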

For experiment [1], the system named is Glioma SNB19M (MGMT+). The experiment is described as follows: MTT assay for 7-day toxicity assay. The essentials: as §1
(In general: Tetrazolium assays rely on reduction of a dye to a coloured formazan, in cell work by metabolically active cells.)

The test system of experiment [2] is Glioma SNB19V (MGMT−). Nature of the experiment: Clonogenic survival assay (Table 14, assay not named there). The protocol:
(§2) A clonogenic assay, which measures tumour cell survival and subsequent proliferative ability following drug exposure was used to verify that the cells remaining metabolically active following treatment with TMZ and new derivatives. See, e.g., Brown, J. M., et al., 1999, “Apoptosis, p53, and tumor cell sensitivity to anticancer agents”, Cancer Research, Vol. 59, No. 7, pp. 1391-1399.
(§3) Exponentially growing cells were seeded in triplicate at a density of 200 cells/well in 6 well plate and allowed to attach overnight and then exposed to increasing concentration of TMZ and test compounds (0, 5, 10, 100, 500, 1000 μM). After 18 hours, the plates were changed to drug free media and left to grow in the 37° C., 5% CO2 incubator. After 14 days, the plates were rinsed in PBS and fixed with pre-chilled methanol in room temperature for 20 minutes, and then stained with 0.5% methylene blue in 1:1 methanol/H2O (v/v) for 10 minutes and thoroughly washed in distilled water and air dried. Cell colonies containing >30 cells were counted. Growth inhibition by TMZ and test compounds was estimated by dividing the mean number of colonies under drug treatment by the mean number of colonies without drug treatment.

The test system of experiment [3] is Glioma SNB19M (MGMT+). The description is as above. The protocol:
as §2, §3

Experiment [4] relates to Glioma SNB19V (MGMT−). Nature of the experiment: MTT assay for 7-day toxicity assay. The essentials:
as §1

Another experiment concerns Glioma U373V (MGMT low). Nature of the experiment: MTT assay for 7-day toxicity assay. The essentials:
as §1

[5] abbreviates: 168 h, Glioma U373M (MGMT+), 7-day MTT, single determinations, read-out: GI50.
[6] abbreviates: Glioma U373M (MGMT+), 7-day MTT, single determinations, read-out: GI50.
The mark [7] stands for this setting: 168 h, Glioma SNB19M (MGMT+), 7-day MTT, single determinations, read-out: GI50.
[8] abbreviates: Glioma SNB19M (MGMT+), 7-day MTT, single determinations, read-out: GI50.
Setting [9] is: Glioma SNB19V (MGMT−), read-out: GI50.
The mark [10] stands for this setting: Glioma U373M (MGMT+), read-out: GI50.
[11] abbreviates: Glioma U373V (MGMT low), read-out: GI50.
Where [12] appears, read: Glioma SNB19M (MGMT+), read-out: GI50.
Setting [13] is: Glioma SNB19V (MGMT−), 7-day MTT, single determinations.
The mark [14] stands for this setting: 168 h, Glioma SNB19M (MGMT+), 7-day MTT, single determinations.

Where “and” joins values, the source holds several entries; their conditions need not be identical. Identical values can stand only once. Like-named read-outs stand apart in the source and are kept apart here.

In the case of `C#CCn1nnc2c(C(N)=O)ncn2c1=O` [EE-001, 3-Propargyl-8-carbamoylimidazotetrazin-4-one], the GI50 is 45.1 µM with Glioma U373M (MGMT+) (setting [5]); 42.8 µM and 24.6 µM and 31.7 µM in the experiment on Glioma U373M (MGMT+) (setting [6]); 26.9 µM in the experiment with Glioma SNB19M (MGMT+) [1] (setting [7]); 30.6 µM and 41.6 µM and 52.1 µM in the experiment with Glioma SNB19M (MGMT+) [1] (setting [8]); 7 µM in the experiment with Glioma SNB19V (MGMT−) [2]; 7.8 µM in the experiment with Glioma SNB19M (MGMT+) [3].
As to `C[S+]([O-])Cn1nnc2c(C(N)=O)ncn2c1=O` (centres unmarked) [UU-003, 3-Methanesulfinylmethyl-4-oxo-3,4-dihydro-imidazo[5,1-d][1,2,3,5]tetrazine-8-carboxylic acid amide], the GI50 in the experiment on Glioma SNB19V (MGMT−) [4] (setting [9]) was 30.3 µM and 38.1 µM and 25.3 µM and 21.8 µM; with Glioma U373M (MGMT+) (setting [10]) it was 4.6 µM and 8.6 µM and 7.6 µM and 8.2 µM.
In the case of `CCOC(=O)Cn1nnc2c(C(N)=O)ncn2c1=O` [PX-016], the GI50 in the experiment on Glioma SNB19V (MGMT−) [4] (168 h, Glioma SNB19V (MGMT−), 7-day MTT, single determinations, read-out: GI50) was 55.2 µM; in the experiment with Glioma SNB19V (MGMT−) [4] (Glioma SNB19V (MGMT−), 7-day MTT, single determinations, read-out: GI50) it was 48.7 µM and 57.3 µM and 48.4 µM; in the experiment on Glioma U373V (MGMT low) (168 h, Glioma U373V (MGMT low), 7-day MTT, single determinations, read-out: GI50) it was 49.9 µM; in the experiment with Glioma U373V (MGMT low) (Glioma U373V (MGMT low), 7-day MTT, single determinations, read-out: GI50), 59.6 µM and 73.8 µM and 69.5 µM; in the experiment with Glioma U373M (MGMT+) (setting [5]), 49.6 µM; with Glioma U373M (MGMT+) (setting [6]), 62.5 µM and 54.7 µM. For the same molecule, the GI50 in the experiment with Glioma SNB19M (MGMT+) [1] (setting [7]) is 66.7 µM; with Glioma SNB19M (MGMT+) [1] (setting [8]), 54 µM and 61.7 µM and 61.8 µM.
As for `COCn1nnc2c(C(N)=O)ncn2c1=O` [PX-020], the GI50 was 21.3 µM and 22 µM and 30.2 µM and 30.4 µM in the experiment with Glioma U373V (MGMT low) (setting [11]); 26.5 µM and 39.6 µM in the experiment on Glioma U373M (MGMT+) (setting [10]); 28.7 µM and 26.6 µM and 43.4 µM in the experiment with Glioma SNB19M (MGMT+) [1] (setting [12]); 38.6 µM with Glioma SNB19V (MGMT−) [2]; 30 µM with Glioma SNB19M (MGMT+) [3].
As for `NC(=O)c1ncn2c(=O)n(CCl)nnc12` [PX-030], the GI50 was 44.6 µM and 24.6 µM in the experiment on Glioma SNB19V (MGMT−) [4] (setting [9]); 34.8 µM and 23.8 µM with Glioma U373V (MGMT low) (setting [11]); 23.7 µM and 25.1 µM with Glioma U373M (MGMT+) (setting [10]); 36.6 µM and 25.4 µM in the experiment with Glioma SNB19M (MGMT+) [1] (setting [12]); 38.9 µM in the experiment on Glioma SNB19V (MGMT−) [2]; 31.5 µM with Glioma SNB19M (MGMT+) [3].
For `Cn1nnc2c(C(N)=O)ncn2c1=O` [TMZ, 3-Methyl-4-oxo-3,4-dihydro-imidazo[5,1-d][1,2,3,5]tetrazine-8-carboxylic acid amide, reference compound], the GI50 came out at 35.7 µM in the experiment on Glioma SNB19V (MGMT−) [4] (Glioma SNB19V (MGMT−)); 27.6 µM in the experiment with Glioma SNB19V (MGMT−) [4] (setting [13]); 35.7 µM in the experiment on Glioma SNB19V (MGMT−) [4] (read-out: TMZ GI50 Average, Glioma SNB19V (MGMT−), average of Table 1); 68 µM in the experiment on Glioma U373V (MGMT low) (Glioma U373V (MGMT low)); 68 µM in the experiment with Glioma U373V (MGMT low) (read-out: TMZ GI50 Average, Glioma U373V (MGMT low), average of Table 1); 369 µM in the experiment with Glioma U373M (MGMT+) (Glioma U373M (MGMT+)). The GI50 in the experiment with Glioma U373M (MGMT+) (read-out: TMZ GI50 Average, Glioma U373M (MGMT+), average of Table 1) was 369 µM; in the experiment on Glioma SNB19M (MGMT+) [1] (setting [14]), 464 µM; in the experiment with Glioma SNB19M (MGMT+) [1] (Glioma SNB19M (MGMT+)), 470 µM; with Glioma SNB19M (MGMT+) [1] (read-out: TMZ GI50 Average, Glioma SNB19M (MGMT+), average of Table 1), 470 µM; in the experiment with Glioma SNB19V (MGMT−) [2], 32.2 µM; in the experiment on Glioma SNB19M (MGMT+) [3], 875 µM. The molecule also gave a GI50 in the experiment with Glioma SNB19M (MGMT+) [3] (listed as Temozolomide) of 834 µM.
For `C[C@H](c1ccccc1)n1nnc2c(C(N)=O)ncn2c1=O` [BB-001, (R)-3-(-1-Phenylethyl)-8-carbamoylimidazotetrazin-4-one], the GI50 with Glioma SNB19V (MGMT−) [4] (168 h, Glioma SNB19V (MGMT−), 7-day MTT, single determinations) was found to be 33.6 µM; in the experiment with Glioma SNB19V (MGMT−) [4] (setting [13]), 31.8 µM; in the experiment with Glioma U373V (MGMT low) (168 h, Glioma U373V (MGMT low), 7-day MTT, single determinations) it was 49 µM; in the experiment with Glioma U373V (MGMT low) (Glioma U373V (MGMT low), 7-day MTT, single determinations) it was 71.3 µM; in the experiment with Glioma U373M (MGMT+) (168 h, Glioma U373M (MGMT+), 7-day MTT, single determinations), 67.1 µM; in the experiment with Glioma U373M (MGMT+) (Glioma U373M (MGMT+), 7-day MTT, single determinations) it was 79.6 µM. The GI50 stood at 46.1 µM with Glioma SNB19M (MGMT+) [1] (setting [14]); 53.4 µM with Glioma SNB19M (MGMT+) [1] (Glioma SNB19M (MGMT+), 7-day MTT, single determinations); 22.2 µM in the experiment on Glioma SNB19V (MGMT−) [2]; 8.5 µM in the experiment on Glioma SNB19M (MGMT+) [3].
For `C[Si](C)(C)CCOCn1nnc2c(C(N)=O)ncn2c1=O` [PX-021], the GI50 in the experiment on Glioma SNB19V (MGMT−) [4] (setting [9]) is 36 µM and 26.9 µM and 26.8 µM; in the experiment with Glioma U373V (MGMT low) (setting [11]), 28.2 µM and 22.3 µM and 25.5 µM; in the experiment on Glioma U373M (MGMT+) (setting [10]), 27.2 µM and 23.6 µM and 21.9 µM; in the experiment with Glioma SNB19M (MGMT+) [1] (setting [12]), 26.7 µM and 29.1 µM; with Glioma SNB19V (MGMT−) [2] it was 43.3 µM; in the experiment on Glioma SNB19M (MGMT+) [3] it was 22.1 µM.

As usually defined, the GI50 is the concentration giving 50% growth inhibition.
